Patent publication US20040180958A1, “Method of treatment” (priority 2002, published 2004)

Key:
[1] = test system: micturition reflex of anaesthetised rats; experiment: Continuous cystometry: effects of an alpha-2-delta ligand on the micturition reflex of anaesthetised rats; format: in vivo, rat
Procedure: Investigation into the Effects of an Alpha-2-delta Ligand on the Micturition Reflex of Anaesthetised Rats
Four caesarean derived (CD) rats weighing approximately 225 g were anaesthetised using urethane and continuous cystometry performed.
The animals were anaesthetised using urethane (1.2 g/kg, i.p.). Depth of anaesthesia was assessed by the stability of blood pressure and heart rate, and by an absence of hind limb withdrawal in response to paw pinch. Supplementary doses of urethane ([…], i.v.) were given where necessary.
The trachea was intubated to maintain a patent airway, an external jugular vein was cannulated for drug administration, and a common carotid artery was cannulated with a heparinised cannula (20 units/ml heparin in 0.9% w/v saline) for the measurement of arterial blood pressure.
Blood pressure was measured using a pressure transducer and the heart rate (HR) derived electronically on-line from the blood pressure using PoneMah (Linton Pty Ltd UK). Body temperature was monitored with a rectal temperature probe and maintained between 36-38° C. using a homeothermic blanket system (Harvard, UK). Animals were allowed to breathe air spontaneously throughout the duration of the experiment.
The urinary bladder was exposed by a midline abdominal incision. A cannula (c. 0.52 mm internal and 1.2 mm external diameter) was inserted into the bladder dome as a means of infusing the bladder while simultaneously recording intravesical bladder pressure. The bladder was infused with physiological saline (0.9%) at the rate of 0.046 ml/min, to simulate the maximal hourly diuresis rate of the rat (Klevmark B [1974]—Motility of the urinary bladder in cats during filling at physiological rates. I. Intravesical pressure patterns studied by a new method of cystometry. Acta Physiol Scand 90(3): 565-77).
Following the surgical procedure the animals were allowed to stabilise for c. 30 min. After the stabilisation period, cystometry was performed and bladder function (interval between micturition) in response to Gabapentin-HCl (0.3, 1, 3 and 10 mg/kg administered intravenously) was monitored.
Differences between treatment groups were examined using ANOVA.
Gabapentin-HCl (Tocris, UK) was dissolved in saline.

[2] = test system: male spontaneously hypertensive rat (SHR); experiment: Micturition frequency and bladder pressure by telemetry in the male spontaneously hypertensive rat (SHR); format: in vivo; settings: 60 mg/kg s/c
Procedure: Effect of an Alpha-2-delta Ligand on Micturition Frequency and Bladder Pressure in the Male Spontaneously Hypertensive Rat (SHR)
Eight (8) male spontaneously hypertensive rats were prepared surgically with Data Sciences International (DSI) telemetry transponders (TL11M2-C50-PXT). Bladder pressure was continuously monitored with the aid of a pressure catheter placed via the dome of the bladder.
Bladder parameters (bladder pressure, voiding pressure and the number of voids) were recorded in response to placebo or treatment with 60 mg/kg Gabapentin administered subcutaneously (s/c).

| SMILES | micturition interval ([1]; 10 mg/kg intravenously, control 3.1±0.29 min, P<0.05) [min] | adverse effects on micturition efficiency, urine retention or bladder contraction upon voiding ([1]; 10 mg/kg, anaesthetised rats) | bladder capacity improved ([1]; anaesthetised rats, intravenous, as a consequence of the longer micturition interval) [%] | interval between voiding events ([1]; urethane-anaesthetised CD rats, 0.3, 1, 3 and 10 mg/kg intravenously, relative to control periods) | bladder capacity ([2]; FIG. 2) | micturition interval ([2]; P<0.05, FIG. 2) | average bladder pressure during the filling stages of the micturition cycle ([2]; P<0.05 relative to control periods, FIG. 3) | melting point [°C] |
| --- | --- | --- | --- | --- | --- | --- | --- | --- |
| NCC1(CC(=O)O)CCCCC1 [gabapentin, 1-(aminomethyl)-cyclohexylacetic acid] | 9.89 ± 2.72 | did not have any adverse effects | 200 | significantly extended the interval between voiding events in a dose dependent manner | increased bladder capacity | significantly decreased | significantly decreased |  |
| CCCC[C@@H](C)C[C@H](N)CC(=O)O.Cl |  |  |  |  |  |  |  | 142.5 to 143.3 |
| CCC[C@@H](C)C[C@H](N)CC(=O)O.Cl |  |  |  |  |  |  |  | 142.5 to 142.7 |
